The values below come from patent publication US10562912B2 (C&C Research Laboratories, priority 2013, dated 2020).

SMILES strings stand for the structures.

What all share (type): cell-based
The test system of one assay is AGS. Description: Cell growth inhibition assay, stomach cancer cell line AGS. To be noted: Homo sapiens; AGS stomach cancer cell line, 3,000 cells/well.
The target in a further assay is T1, STAT3 (Homo sapiens, UniProt P40763).
T1 construct: plasmid pSTAT3-TA-luc), which contains a stably operating STAT3 promoter; endogenous in cells
Description: STAT3 reporter gene assay (luciferase), LNCaP stable cell line (pSTAT3-TA-luc), IL-6 stimulation. In short, it runs like this:
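LNCaP cells stably carrying pSTAT3-TA-luc, in RPMI1640 with 3% DCC-FBS, were treated with compound and then stimulated with 10 ng/mL IL-6 for 24–48 h at 37 °C. Luciferase activity was measured in lysates. A parallel plate measured viability by CellTiter-Glo, with stimulated 0.1% DMSO wells as the positive control.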
For orientation: A reporter such as luciferase makes a cellular process visible.

In the next assay the test system is LNCaP. Description: Cell growth inhibition assay, prostate cancer cell line LNCaP (medium with 10 ng/mL IL-6). To be noted: Homo sapiens, medium supplemented with 10 ng/mL of IL-6, 10,000 cells/well.

T1 sequence (P40763 whole entry): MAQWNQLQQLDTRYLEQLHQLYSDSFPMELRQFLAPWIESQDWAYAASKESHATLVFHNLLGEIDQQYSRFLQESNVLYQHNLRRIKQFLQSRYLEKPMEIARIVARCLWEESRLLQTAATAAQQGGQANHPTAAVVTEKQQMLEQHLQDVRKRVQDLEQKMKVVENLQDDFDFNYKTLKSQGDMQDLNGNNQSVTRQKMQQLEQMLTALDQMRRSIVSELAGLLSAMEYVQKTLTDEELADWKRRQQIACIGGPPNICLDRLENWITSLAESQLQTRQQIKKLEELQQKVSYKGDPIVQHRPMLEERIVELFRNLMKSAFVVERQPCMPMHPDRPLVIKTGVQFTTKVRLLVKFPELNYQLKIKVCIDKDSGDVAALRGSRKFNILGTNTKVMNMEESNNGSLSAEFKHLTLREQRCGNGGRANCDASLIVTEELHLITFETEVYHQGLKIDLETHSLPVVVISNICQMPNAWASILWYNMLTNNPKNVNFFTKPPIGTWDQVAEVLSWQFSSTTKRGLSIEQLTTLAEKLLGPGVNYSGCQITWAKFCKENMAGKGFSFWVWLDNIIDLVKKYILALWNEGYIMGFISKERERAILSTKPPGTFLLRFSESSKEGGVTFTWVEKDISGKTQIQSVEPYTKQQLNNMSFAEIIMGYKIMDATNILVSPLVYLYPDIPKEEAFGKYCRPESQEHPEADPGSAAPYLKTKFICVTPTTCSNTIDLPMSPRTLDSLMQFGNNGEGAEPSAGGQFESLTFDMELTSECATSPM

As usually defined, the IC50 is the concentration at which inhibition is half-maximal. A low value points to higher potency. With `CS(=O)(=O)Nc1ccc2cc(C(=O)Nc3cccc(-c4ncccc4C(F)(F)F)c3)[nH]c2c1` [Example 290, 6-(methylsulfonamido)-N-(3-(3-(trifluoromethyl)pyridin-2-yl)phenyl)-1H-indole-2-carboxamide], the IC50 is 20.9 µM with AGS, 7 µM against STAT3 and over 10 µM in the assay on LNCaP.
For `CS(=O)(=O)Nc1ccc2cc(C(=O)Nc3cccc(-c4cnccc4C(F)(F)F)c3)[nH]c2c1` [Example 291, 6-(methylsulfonamido)-N-(3-(4-(trifluoromethyl)pyridin-3-yl)phenyl)-1H-indole-2-carboxamide], the IC50 in the assay with AGS stood at 13.9 µM; at STAT3, 3.2 µM; with LNCaP it was 8.1 µM.
For the compound `O=C(Nc1cccc(-c2cccnc2C(F)(F)F)c1)c1cc2ccc([N+](=O)[O-])cc2[nH]1` [Example 292, 6-nitro-N-(3-(2-(trifluoromethyl)pyridin-3-yl)phenyl)-1H-indole-2-carboxamide], the IC50 in the assay on AGS is 43.7 µM; on STAT3, over 10 µM; with LNCaP it was over 10 µM.
On to `CS(=O)(=O)Nc1ccc2cc(C(=O)Nc3cccc(-c4cnc(Cl)cc4C(F)(F)F)c3)[nH]c2c1` [Example 294, N-(3-(6-chloro-4-(trifluoromethyl)pyridin-3-yl)phenyl)-6-(methylsulfonamido)-1H-indole-2-carboxamide], for which the IC50 in the assay with AGS came out at 16.1 µM; against STAT3, 2.6 µM; with LNCaP it was 3.5 µM.
For `COc1ccc(-c2cccc(NC(=O)c3cc4ccc([N+](=O)[O-])cc4[nH]3)c2)c(F)c1` [Example 295, N-(2′-fluoro-4′-methoxy-[1,1′-biphenyl]-3-yl)-6-nitro-1H-indole-2-carboxamide], the IC50 in the assay with AGS was over 50 µM; against STAT3, over 10 µM; in the assay with LNCaP, over 10 µM.
`COc1ccc(-c2cccc(NC(=O)c3cc4ccc(NS(C)(=O)=O)cc4n3C(=O)OC(C)(C)C)c2)c(F)c1` [Example 296, tert-butyl 2-((2′-fluoro-4′-methoxy-[1,1′-biphenyl]-3-yl)carbamoyl)-6-(methylsulfonamido)-1H-indole-1-carboxylate]: the half-maximal inhibitory concentration (IC50) is over 50 µM in the assay on AGS, over 10 µM on STAT3 and over 10 µM with LNCaP.
Regarding `COc1ccc(F)c(-c2ccnc(NC(=O)c3cc4ccc([N+](=O)[O-])cc4[nH]3)c2)c1` [Example 297, N-(4-(2-fluoro-5-methoxyphenyl)pyridin-2-yl)-6-nitro-1H-indole-2-carboxamide], the IC50 in the assay with AGS was 21.6 µM; against STAT3 it was over 10 µM; with LNCaP it was 8.6 µM.
Turning to `COC(=O)c1ccc(Cl)c(-c2cccc(NC(=O)c3cc4ccc([N+](=O)[O-])cc4[nH]3)c2)c1` [Example 298, methyl 6-chloro-3′-(6-nitro-1H-indole-2-carboxamido)-[1,1′-biphenyl]-3-carboxylate], the results for the IC50 in the assay with AGS, at STAT3 and with LNCaP were 31.7 µM, over 10 µM and over 10 µM, respectively.
As for `COC(=O)c1ccc(Cl)c(-c2cccc(NC(=O)c3cc4ccc(NS(C)(=O)=O)cc4[nH]3)c2)c1` [Example 299, methyl 6-chloro-3′-(6-(methylsulfonamido)-1H-indole-2-carboxamido)-[1,1′-biphenyl]-3-carboxylate], the IC50 in the assay with AGS was 43.1 µM; against STAT3, 3.1 µM; in the assay with LNCaP it was over 10 µM.
In the case of `COC(=O)c1ccc(Cl)c(-c2ccnc(NC(=O)c3cc4ccc(NS(C)(=O)=O)cc4[nH]3)c2)c1` [Example 300, methyl 4-chloro-3-(2-(6-(methylsulfonamido)-1H-indole-2-carboxamido)pyridin-4-yl)benzoate], the IC50 in the assay on AGS was over 50 µM; on STAT3, 5.3 µM; in the assay on LNCaP, over 10 µM.
As for `CS(=O)(=O)Nc1ccc2cc(C(=O)Nc3cc(C#N)cc(-c4ccc(F)cc4C(F)(F)F)c3)[nH]c2c1` [Example 315, N-(5-cyano-4′-fluoro-2′-(trifluoromethyl)-[1,1′-biphenyl]-3-yl)-6-(methylsulfonamido)-1H-indole-2-carboxamide], the IC50 in the assay with AGS came to 25.9 µM; at STAT3 it was 2.6 µM; with LNCaP, 3 µM.
For the compound `CN(c1ccc2cc(C(=O)Nc3cccc(-c4ccccc4C(F)(F)F)c3)n(C)c2c1)S(C)(=O)=O` [Example 343, 1-methyl-6-(N-methylmethylsulfonamido)-N-(2′-(trifluoromethyl)-[1,1′-biphenyl]-3-yl)-1H-indole-2-carboxamide], the half-inhibitory concentration (IC50) stood at 5.8 µM in the assay on AGS, 1.8 µM against STAT3 and 2.8 µM in the assay on LNCaP.
Turning to `CN(c1ccc2cc(C(=O)Nc3cccc(-c4ccc(F)cc4F)c3)n(C)c2c1)S(C)(=O)=O` [Example 345, N-(2′,4′-difluoro-[1,1′-biphenyl]-3-yl)-1-methyl-6-(N-methylmethylsulfonamido)-1H-indole-2-carboxamide], the half-inhibitory concentration (IC50) in the assay with AGS was 6.9 µM; on STAT3 it was 1.6 µM; in the assay with LNCaP, 3.5 µM.
The matching figures for `COc1cc(C(F)(F)F)c(-c2cccc(NC(=O)c3cc4ccc(NS(C)(=O)=O)cc4[nH]3)c2)cc1C(N)=O` [Example 377, N-(5′-carbamoyl-4′-methoxy-2′-(trifluoromethyl)-[1,1′-biphenyl]-3-yl)-6-(methylsulfonamido)-1H-indole-2-carboxamide]: 15.2 µM, over 10 µM and over 10 µM.
Consider `CS(=O)(=O)Nc1ccc2cc(C(=O)Nc3cccc(-c4cc(C(N)=O)c(O)cc4C(F)(F)F)c3)[nH]c2c1` [Example 378, N-(5′-carbamoyl-4′-hydroxy-2′-(trifluoromethyl)-[1,1′-biphenyl]-3-yl)-6-(methylsulfonamido)-1H-indole-2-carboxamide], for which the results for the IC50 in the assay with AGS, against STAT3 and in the assay on LNCaP were 39.9 µM, over 10 µM and over 10 µM, respectively.
For the compound `CS(=O)(=O)Nc1ccc2cc(C(=O)Nc3cccc(-c4cc(C(N)=O)ccc4C(F)(F)F)c3)[nH]c2c1` [Example 379, N-(5′-carbamoyl-2′-(trifluoromethyl)-[1,1′-biphenyl]-3-yl)-6-(methylsulfonamido)-1H-indole-2-carboxamide], the concentration for half-maximal inhibition (IC50) is 30.1 µM in the assay with AGS, over 10 µM at STAT3 and over 10 µM in the assay with LNCaP.
On to `CS(=O)(=O)Nc1ccc2cc(C(=O)Nc3cccc(-c4cc(C(N)=O)ccc4Cl)c3)[nH]c2c1` [Example 380, N-(5′-carbamoyl-2′-chloro-[1,1′-biphenyl]-3-yl)-6-(methylsulfonamido)-1H-indole-2-carboxamide], for which the IC50 is 42.6 µM with AGS, over 10 µM against STAT3 and over 10 µM with LNCaP.
With `CS(=O)(=O)Nc1ccc2cc(C(=O)Nc3cc(-c4cc(C(N)=O)ccc4Cl)ccn3)[nH]c2c1` [Example 381, N-(4-(5-carbamoyl-2-chlorophenyl)pyridin-2-yl)-6-(methylsulfonamido)-1H-indole-2-carboxamide], the figures for the IC50 in the assay on AGS, on STAT3 and with LNCaP were over 50 µM, over 10 µM and over 10 µM, respectively.
In the case of `CS(=O)(=O)Nc1ccc2cc(C(=O)Nc3cccc(-c4ccc(N)cc4C(F)(F)F)c3)[nH]c2c1` [Example 385, N-(4′-amino-2′-(trifluoromethyl)-[1,1′-biphenyl]-3-yl)-6-(methylsulfonamido)-1H-indole-2-carboxamide], the figures for the IC50 with AGS, against STAT3 and with LNCaP were 26.3 µM, 4.3 µM and over 10 µM, respectively.
In the case of `CNc1ccc(-c2cccc(NC(=O)c3cc4ccc(NS(C)(=O)=O)cc4[nH]3)c2)c(C(F)(F)F)c1` [Example 386, N-(4′-(methylamino)-2′-(trifluoromethyl)-[1,1′-biphenyl]-3-yl)-6-(methylsulfonamido)-1H-indole-2-carboxamide], the IC50 with AGS is 7.6 µM; against STAT3 it was 3.4 µM; with LNCaP it was 8 µM.
Regarding `CS(=O)(=O)Nc1ccc2cc(C(=O)Nc3cccc(C(F)(F)c4ccncc4)c3)[nH]c2c1` [Example 388, N-(3-(difluoro(pyridin-4-yl)methyl)phenyl)-6-(methylsulfonamido)-1H-indole-2-carboxamide], the IC50 turned out to be 9.8 µM in the assay on AGS, 3.8 µM on STAT3 and 8.2 µM in the assay with LNCaP.
Turning to `CS(=O)(=O)Nc1ccc2cc(C(=O)Nc3cccc(C(F)(F)c4ccccn4)c3)[nH]c2c1` [Example 389, N-(3-(difluoro(pyridin-2-yl)methyl)phenyl)-6-(methylsulfonamido)-1H-indole-2-carboxamide], the IC50 with AGS was 20.3 µM; at STAT3 it was 5.8 µM; with LNCaP, 9.1 µM.
Turning to `CC(C)COc1cc(NC(=O)c2cc3ccc(NS(C)(=O)=O)cc3[nH]2)cc(C(F)(F)c2cccc(C#N)c2)c1` [Example 392, N-(3-((3-cyanophenyl)difluoromethyl)-5-isobutoxyphenyl)-6-(methylsulfonamido)-1H-indole-2-carboxamide], the results for the IC50 in the assay on AGS, at STAT3 and in the assay with LNCaP were 9 µM, 1.8 µM and 8.3 µM, respectively.
Turning to `COc1ccc(S(=O)(=O)c2cccc(NC(=O)c3cc4ccc(NS(C)(=O)=O)cc4[nH]3)c2)cc1` [Example 394, N-(3-((4-methoxyphenyl)sulfonyl)phenyl)-6-(methylsulfonamido)-1H-indole-2-carboxamide], the IC50 with AGS was 20 µM; against STAT3, 3.3 µM; with LNCaP it was over 10 µM.
For `CS(=O)(=O)Nc1ccc2cc(C(=O)Nc3cccc(S(=O)(=O)c4cccc(C#N)c4)c3)[nH]c2c1` [Example 402, N-(3-((3-cyanophenyl)sulfonyl)phenyl)-6-(methylsulfonamido)-1H-indole-2-carboxamide], the IC50 was 22.1 µM in the assay on AGS, 6.3 µM at STAT3 and over 10 µM in the assay with LNCaP.
